In US20250042908A1, “SALTS FOR MTOR COMPOUNDS” (GALDERMA HOLDING S.A., priority 2022, published 2025):
Structures can show the parent of a compound that is named as a salt. Where two headings read alike, the source gives them in different places.

Columns and labels:
[1] = In vitro permeation testing in Franz cells; format: in vitro ADME; settings: human abdominal skin, Franz cell
Method: In vitro permeation testing was performed using human abdominal skin from 3 donors and 2 samples per donor with a thickness of 400 μm (±100 μm). The samples were used in Franz cell 2 cm^2 of diameter and a receptor volume of 3 mL (PBS+4% BSA (Bovine Serum Albumin).
The receptor compartment was surrounded by a water jacket heated to 37° C.±1° C. insuring a skin surface temperature of 32° C.±1° C. The receptor compartment is separated from the donor compartment by the skin membrane where the epidermis side faces the donor. Receptor compartments containing magnetic stirrer bar, were filled with the receptor fluid in such a way to prevent any formation of air-bubbles. During the diffusion experiment, receptor fluids were continuously stirred in order to ensure homogenization.
Abdominal skins from aesthetic surgery were used in this study. Skins, upon arrival, were separated from hypodermis with the help of tweezers and a scalpel blade. Skins were gently washed and stored flat in aluminum foil for freezing at −20° C. At the day of experiment, skins were thawed then cut in smaller pieces to fit with diffusion cell geometry. In this experiment three donors were used. Skin specimens were mounted onto Franz diffusion cells with PBS+4% Bovine Serum Albumin as a receptor fluid. […]
Following at least 45 min equilibrium with receptor fluid, skin integrity is assessed by Transepidermal Water Loss (TEWL) measurements. […] TEWL is again measured and cells still depicting a high water flux are recorded. […] Individual TEWL values for each skin specimen used, room temperature and relative humidity were also recorded.
Test Items were applied at a dose of 5 mg/cm^2 for 24 hours on the skin samples in the Franz cell. At the end of exposure, the following samples were recovered: Stratum corneum (not analysed), epidermis, dermis and receptor fluid were collected analysed for API content.
The samples were analyzed following LC/MS/MS method internally certified. […] Percutaneous fluxes were calculated as the ratio of permeated amounts in receptor fluid (RF) of each individual cell to the duration of exposure (24 h).

[2] = XRPD analysis of solid residues collected from the water solubility assay; format: physicochemical; settings: solids in suspension in water collected after 24 h stirring, compared to material as received
Method: XRPD analysis was conducted with a Bruker D8-Advance diffractometer, type: Bragg-Bentano. Source CuKα1, λ=1.5406 Å and CuKα2, λ2=1.54439 Å. Generator: 35 kV-40 mA. Detector: Lynx Eye.
The sample was analyzed using the following protocol: Around 3 mg of the test compound delivered as solid material is gently grounded to homogenize the powder and deposed on zero-diffraction Silicon sample holder. The sample holder is then placed in the X-Ray Diffractometer chamber.
The copper anode X-ray source is turned on using a generator set at 35 kV voltage and at 40 mA intensity. While X-ray beam irradiates the sample, both X-ray source and X-ray detector move on the goniometer with equal 0 angle: diffractometer in Bragg-Brentano configuration. XRPD pattern is recorded in the [2°; 40°] 2θ angle range by step of 0.040 in 20 and for 1 second at each angle step.
(§1) The target concentration tested to measure the maximum solubility of the 3 salts (phosphate, malonate and malate) and free base in 6 different media was 30 mg/ml. Solids in suspension in water solubility assays have been collected by centrifugation (15 min at 18000 rpm) after 24 h stirring for XRPD analysis. Recorded XRPD patterns have been compared to the one recorded for the salts or free base as received (see FIGS. 8-11).

[3] = Solubility of free base and salts in 6 different media (UPLC-UV); format: physicochemical; settings: target concentration 30 mg/ml; for solubility at 24 h: thermodynamic from solid
Method: The following protocol has been used to prepare samples for solubility measurements at room temperature in the 6 different media. First, weigh appropriate amount of each salt and free base compound to reach the desired target concentration (30 mg/ml). Addition at room temperature the studied media to reach the selected target concentration, follow by orbital stirring at room temperature for 24 h, while protected from light. Except for the glycerin medium, separation of the soluble fraction from the non-soluble fraction is performed by centrifugation (15 min at 18000 rpm) followed by filtration on PTFE 0.45 μm membrane. For the glycerin medium, 3 steps of centrifugation (15 mw at 18000 rpm) to collect the supernatant was performed. The resulting filtrates and supernatant for glycerin medium were diluted in appropriate solvents described in the following table to be in the range of calibration curve. Quantification of the diluted and undiluted samples was performed using UPLC-UV.
A standard calibration curve (chromatographic UV peak area vs concentration) between 0.5 μg/mL and 500 μg/mL was established in DMSO according to the following protocol. First, weighing 1 mg free base, then addition of DMSO until a 1 mg/mL clear DMSO Stock solution is obtained. Next, selected compound DMSO solutions at 5 different concentrations (500 ag/mL, 250 ag/mL, 100 ag/ml, 25 μg/ml and 0.5 μg/mL) were prepared by dilution with pure DMSO.
Samples were analysed by UPLC-UV-MS according to the following: (a) Instrument: Waters Acquity H-Class with PDA and QDa detectors; (b) Column: Waters Acquity BEH C18, 1.7 m, 2.1×50 mm; (c) Flow rate: 0.65 ml/min; (d) UV detection: 220 nm, 254 nm, 290 nm; (e) Column temperature: 40° C.; (f) Injection volume: 0.4 μl; (g) Mobile phase: Gradient with solutions A and B prepared according to Table 6; (h) Ionisation mode: ESI+/ESI−; (i) Source temperature: 600° C.; (j) Capillary voltage: 0.8 kV; and (k) Cone voltage: +20V/−20V.
as §1

[4] = 5 mg/cm^2 for 24 hours, 0.63 w/w % phosphate salt vs 0.5 w/w % free base
[5] = Glycerin/Water 5/95 (v/v), room temperature, 24 h
[6] = Glycerin/Water 10/90 (v/v), room temperature, 24 h
[7] = Glycerin/Water 20/80 (v/v), room temperature, 24 h
[8] = Transcutol/Water 10/90 (v/v), room temperature, 24 h
[9] = glycerin, room temperature, 24 h
[10] = water, orbital stirring at room temperature for 24 h
[11] = Glycerin/Water 5/95 (v/v), aqueous with cosolvent or surfactant or cyclodextrin, Glycerin/Water 5/95 (v/v), room temperature, 24 h, read-out: Solubility, Glycerin/Water 5/95 (v/v)
[12] = Glycerin/Water 10/90 (v/v), aqueous with cosolvent or surfactant or cyclodextrin, Glycerin/Water 10/90 (v/v), room temperature, 24 h, read-out: Solubility, Glycerin/Water 10/90 (v/v)
[13] = Glycerin/Water 20/80 (v/v), aqueous with cosolvent or surfactant or cyclodextrin, Glycerin/Water 20/80 (v/v), room temperature, 24 h, read-out: Solubility, Glycerin/Water 20/80 (v/v)
[14] = Transcutol/Water 10/90 (v/v), aqueous with cosolvent or surfactant or cyclodextrin, Transcutol/Water 10/90 (v/v), room temperature, 24 h, read-out: Solubility, Transcutol/Water 10/90 (v/v)
[15] = glycerin, organic solvent or mixture, glycerin, room temperature, 24 h, read-out: Solubility, Glycerin
[16] = water, water, orbital stirring at room temperature for 24 h, read-out: Solubility, Water

| ratio of percutaneous flux over dermis concentration, phosphate salt compared to free base [1, 4] | skin permeability coefficient (Kp), phosphate salt relative to free base [1, 4] [times] | permeability of formulation compared to free base formulation ([1]; 24 hours, 10% w/w propylene glycol of the free base formulation replaced with water) | XRPD of solid residues in water [2] | Solubility, Glycerin/Water 5/95 (v/v) [3, 5] [mg/mL] | Solubility, Glycerin/Water 10/90 (v/v) [3, 6] [mg/mL] | Solubility, Glycerin/Water 20/80 (v/v) [3, 7] [mg/mL] | Solubility, Transcutol/Water 10/90 (v/v) [3, 8] [mg/mL] | Solubility, Glycerin [3, 9] [mg/mL] | Solubility, Water [3, 10] [mg/mL] | solubility at 24 h [3, 11] [µg/mL] | solubility at 24 h [3, 12] [µg/mL] | solubility at 24 h [3, 13] [µg/mL] | solubility at 24 h [3, 14] [µg/mL] | solubility at 24 h [3, 15] [µg/mL] | solubility at 24 h [3, 16] [µg/mL] | SMILES |
| --- | --- | --- | --- | --- | --- | --- | --- | --- | --- | --- | --- | --- | --- | --- | --- | --- |
| over 600 times | 3 | superior permeability | No crystalline phase conversion | 4.3 ± 0.2 | 4.7 ± 0.2 | 5.7 ± 0.2 | 5.5 ± 0.2 | 15.8 ± 0.3 | 3.9 ± 0.2 |  |  |  |  |  |  | CC(C)CC(C)n1nc(-c2ccc3oc(N)nc3c2)c2c(N)nc(N)nc21 (stereo not shown) [Phosphate Salt] |
|  |  |  | No crystalline phase conversion | 0.029 | 0.045 | 0.071 | 0.256 | 6.4 ± 0.3 | 0.18 |  |  |  |  |  |  | CC(C)CC(C)n1nc(-c2ccc3oc(N)nc3c2)c2c(N)nc(N)nc21 (stereo not shown) [Free Base, 3-(2-Amino-1,3-benzoxazol-5-yl)-1-(1,3-dimethylbutyl)pyrazolo[3,4-d]pyrimidine-4,6-diamine] |
|  |  |  | Crystalline Phase conversion |  |  |  |  |  |  | 2700 ± 200 | 2900 ± 200 | 3500 ± 200 | 3700 ± 200 | 24700 ± 300 | 2200 | CC(C)CC(C)n1nc(-c2ccc3oc(N)nc3c2)c2c(N)nc(N)nc21.O=C(O)CC(=O)O (stereo not shown) [Malonate Salt] |
|  |  |  | No crystalline phase conversion |  |  |  |  |  |  | 2100 ± 300 | 2200 ± 200 | 2900 ± 200 | 3100 ± 300 | 21100 ± 200 | 1600 | CC(C)CC(C)n1nc(-c2ccc3oc(N)nc3c2)c2c(N)nc(N)nc21.O=C(O)C[C@H](O)C(=O)O (stereo not shown) [Malate Salt] |
